Data as given in patent publication US9834542B2, “LXR modulators” (BRISTOL-MYERS SQUIBB COMPANY, priority 2013, dated 2017).
pEC50: −log10 of the molar value.

Target: T1, LXRβ (Homo sapiens, UniProt P55055)
T1 construct: Co-transfection expression plasmids, comprising full-length LXRα (pCMX-h LXRα[…] or LXRβ (pCMX-hLXRβ)); expressed in transfected cells; host or cells: CV-1 African Green Monkey Kidney Cells
T1 sequence (P55055 1-460): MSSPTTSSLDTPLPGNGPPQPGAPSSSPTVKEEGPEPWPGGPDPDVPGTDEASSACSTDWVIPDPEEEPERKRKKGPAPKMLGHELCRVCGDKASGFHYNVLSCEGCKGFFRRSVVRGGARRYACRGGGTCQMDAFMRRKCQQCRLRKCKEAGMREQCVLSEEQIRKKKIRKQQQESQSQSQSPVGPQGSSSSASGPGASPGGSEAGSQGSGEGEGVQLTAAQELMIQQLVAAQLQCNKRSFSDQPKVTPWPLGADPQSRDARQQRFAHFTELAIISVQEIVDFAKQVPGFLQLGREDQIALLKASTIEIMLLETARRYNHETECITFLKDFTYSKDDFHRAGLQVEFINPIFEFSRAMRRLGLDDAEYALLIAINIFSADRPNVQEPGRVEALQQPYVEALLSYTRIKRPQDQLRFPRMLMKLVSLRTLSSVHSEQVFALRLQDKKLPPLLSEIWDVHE
T1 sequence (P19793 1-462 partner): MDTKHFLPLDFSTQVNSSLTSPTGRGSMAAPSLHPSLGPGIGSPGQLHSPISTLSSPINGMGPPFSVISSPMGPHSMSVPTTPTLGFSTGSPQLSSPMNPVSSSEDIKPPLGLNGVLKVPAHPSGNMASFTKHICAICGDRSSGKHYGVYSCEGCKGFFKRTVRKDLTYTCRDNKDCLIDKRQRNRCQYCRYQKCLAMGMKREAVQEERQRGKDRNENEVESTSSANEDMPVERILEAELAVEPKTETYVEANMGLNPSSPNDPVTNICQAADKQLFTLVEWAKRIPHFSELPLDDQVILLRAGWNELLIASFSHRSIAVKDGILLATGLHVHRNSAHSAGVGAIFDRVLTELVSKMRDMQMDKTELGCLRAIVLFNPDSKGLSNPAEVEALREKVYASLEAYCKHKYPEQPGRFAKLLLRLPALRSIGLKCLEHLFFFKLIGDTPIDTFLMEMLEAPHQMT
Assay: Co-transfection assay (LXRE luciferase reporter), LXRβ
Assay type: cell-based
Conditions: for pEC50: CV-1 cells transfected with pCMX-hLXRβ and LXREx1-Tk-Luciferase, 20 hours incubation; for Emax: LXRβ co-transfection, relative to high control 1-(2,4-difluorobenzyl)-2-oxo-6-(4-phenoxyphenyl)-4-(trifluoromethyl)-1,2-dihydropyridine-3-carbonitrile, read-out: % Efficacy
In short: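 Luciferase signal from an LXREx1-Tk reporter was measured after transfected CV-1 cells (full-length hLXRβ, endogenous RXR) were treated with compounds for 20 h at 37 °C, ≤0.5% DMSO. EC50 came from four-parameter fits of 11-point ½-log curves; % efficacy versus a reference agonist maximum.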

Compound | pEC50 | Emax
Cc1nc(C(F)F)cn1-c1ccc(-c2cc(F)c(CO)c(S(C)(=O)=O)c2)cc1-c1cnnn1Cc1ccc(Cl)cc1 [Example 248, (3′-(1-(4-chlorobenzyl)-1H-1,2,3-triazol-5-yl)-4′-(4-(difluoromethyl)-2-methyl-1H-imidazol-1-yl)-3-fluoro-5-(methylsulfonyl)-[1,1′-biphenyl]-4-yl)methanol] | 6.73 | 88%
Cc1nc(C(F)(F)F)cn1-c1ccc(-c2cccc(S(C)(=O)=O)c2)cc1-n1nncc1-c1ccc(F)cc1F [Example 40, 5-(2,4-difluorophenyl)-1-{3′-(methylsulfonyl)-4-[2-methyl-4-(trifluoromethyl)-1H-imidazol-1-yl]biphenyl-3-yl}-1H-1,2,3-triazole] | 6.02 | 87%
Cc1nc(C(F)(F)F)c(Cl)n1-c1ccc(-c2cc(F)c(CO)c(S(C)(=O)=O)c2)cc1-c1cnnn1-c1ccc(Cl)cc1 [Example 240, {4′-[5-chloro-2-methyl-4-(trifluoromethyl)-1H-imidazol-1-yl]-3′-[1-(4-chlorophenyl)-1H-1,2,3-triazol-5-yl]-3-fluoro-5-(methylsulfonyl)biphenyl-4-yl}methanol] | 6.85 | 129%
Cc1nc(-c2cc(-c3cccc(S(C)(=O)=O)c3)ccc2-n2cc(Cl)nc2C)c(-c2ccc(OC(F)F)c(F)c2)o1 [Example 466, 4-(4-(4-chloro-2-methyl-1H-imidazol-1-yl)-3′-(methylsulfonyl)biphenyl-3-yl)-5-(4-(difluoromethoxy)-3-fluorophenyl)-2-methyloxazole] | 6.70 | 84%
CNS(=O)(=O)c1cccc(-c2ccc(-n3cc(C(F)(F)F)nc3C)c(-c3ocnc3-c3ccc(OC(F)(F)F)cc3)c2)c1 [Example 357, N-methyl-4′-[2-methyl-4-(trifluoromethyl)-1H-imidazol-1-yl]-3′-(4-{4-[(trifluoromethyl)oxy]phenyl}-1,3-oxazol-5-yl)biphenyl-3-sulfonamide] | 6.97 | 98%
Cc1nc(C(F)(F)F)c(Cl)n1-c1ccc(-c2cccc(S(C)(=O)=O)c2)cc1-c1cnnn1-c1ccc(Cl)cc1 [Example 243, 5-{4-[5-chloro-2-methyl-4-(trifluoromethyl)-1H-imidazol-1-yl]-3′-(methylsulfonyl)biphenyl-3-yl}-1-(4-chlorophenyl)-1H-1,2,3-triazole] | 6.62 | 107%
Cc1nc(-c2cc(-c3cccc(S(C)(=O)=O)c3)ccc2-n2cc(C(F)(F)F)nc2C)c(-c2cccc(OC(F)(F)F)c2)o1 [Example 573, 2-methyl-4-(4-(2-methyl-4-(trifluoromethyl)-1H-imidazol-1-yl)-3′-(methylsulfonyl)-[1,1′-biphenyl]-3-yl)-5-(3-(trifluoromethoxy)phenyl)oxazole] | 6.90 | 50%
Cc1nc(-c2cc(-c3cc(F)c(CO)c(S(C)(=O)=O)c3)ccc2-n2cc(C(F)(F)F)nc2C)c(-c2ccc3ccccc3c2)o1 [Example 437, (3-fluoro-4′-(2-methyl-4-(trifluoromethyl)-1H-imidazol-1-yl)-3′-(2-methyl-5-(naphthalen-2-yl)oxazol-4-yl)-5-(methylsulfonyl)biphenyl-4-yl)methanol] | 7.47 | 76%
Cc1nc(-c2cc(-c3cccc(S(C)(=O)=O)c3)ccc2-n2cc(C(F)(F)F)nc2C)c(-c2ccc(OC3CCCCC3)nc2)o1 [Example 408, 5-(6-(cyclohexyloxy)pyridin-3-yl)-2-methyl-4-(4-(2-methyl-4-(trifluoromethyl)-1H-imidazol-1-yl)-3′-(methylsulfonyl)biphenyl-3-yl)oxazole] | 6.48 | 55%
Cc1cc(-c2oc(C)nc2-c2cc(-c3cccc(S(C)(=O)=O)c3)ccc2-n2cc(Cl)nc2C)cc(Cl)n1 [Example 468, 4-(4-(4-chloro-2-methyl-1H-imidazol-1-yl)-3′-(methylsulfonyl)biphenyl-3-yl)-5-(2-chloro-6-methylpyridin-4-yl)-2-methyloxazole] | 6.35 | 47%
Cc1nc(C(F)(F)F)cn1-c1ccc(-c2ccc(CO)c(S(C)(=O)=O)c2)cc1-c1ocnc1Cc1ccc(Cl)cc1 [Example 635, (3′-(4-(4-chlorobenzyl)oxazol-5-yl)-4′-(2-methyl-4-(trifluoromethyl)-1H-imidazol-1-yl)-3-(methylsulfonyl)-[1,1′-biphenyl]-4-yl)methanol] | 6.64 | 58%
Cc1nc(C(F)(F)F)cn1-c1ccc(-c2ccc(CO)c(S(C)(=O)=O)c2)cc1-n1nncc1-c1ccc(OC(F)(F)F)cc1 [Example 90, [3-(methylsulfonyl)-4′-[2-methyl-4-(trifluoromethyl)-1H-imidazol-1-yl]-3′-(5-{4-[(trifluoromethyl)oxy]phenyl}-1H-1,2,3-triazol-1-yl)biphenyl-4-yl]methanol] | 6.75 | 105%
Cc1nc(C(F)(F)F)cn1-c1c(F)cc(-c2ccc(CO)c(S(C)(=O)=O)c2)cc1-n1nncc1-c1ccc(OC(F)(F)F)cc1 [Example 203, [3′-fluoro-3-(methylsulfonyl)-4′-[2-methyl-4-(trifluoromethyl)-1H-imidazol-1-yl]-5′-(5-{4-[(trifluoromethyl)oxy]phenyl}-1H-1,2,3-triazol-1-yl)biphenyl-4-yl]methanol] | 6.90 | 71%
Cc1nc(C(F)(F)F)cn1-c1ccc(-c2cccc(S(C)(=O)=O)c2)cc1-n1nncc1-c1ccc(F)cn1 [Example 77, 5-fluoro-2-(1-{3′-(methylsulfonyl)-4-[2-methyl-4-(trifluoromethyl)-1H-imidazol-1-yl]biphenyl-3-yl}-1H-1,2,3-triazol-5-yl)pyridine] | 5.48 | 63%
Cc1nc(-c2cc(-c3ccc(CO)c(S(C)(=O)=O)c3)ccc2-n2cc(C(F)(F)F)nc2C)c(-c2ccc(OC(F)F)c(F)c2)o1 [Example 402, (3′-(5-(4-(difluoromethoxy)-3-fluorophenyl)-2-methyloxazol-4-yl)-4′-(2-methyl-4-(trifluoromethyl)-1H-imidazol-1-yl)-3-(methylsulfonyl)biphenyl-4-yl)methanol] | 7.37 | 88%
Cc1nc(C(F)(F)F)cn1-c1ccc(-c2cccc(S(C)(=O)=O)c2)cc1-n1nncc1-c1ccc(Cl)c(OC(F)(F)F)c1 [Example 35, 5-{4-chloro-3-[(trifluoromethyl)oxy]phenyl}-1-{3′-(methylsulfonyl)-4-[2-methyl-4-(trifluoromethyl)-1H-imidazol-1-yl]biphenyl-3-yl}-1H-1,2,3-triazole] | 6.18 | 68%
Cc1nc(C(F)(F)F)cn1-c1ccc(-c2cc(F)c(CO)c(S(C)(=O)=O)c2)cc1-c1ocnc1Cc1ccc(Cl)cc1 [Example 633, (3′-(4-(4-chlorobenzyl)oxazol-5-yl)-3-fluoro-4′-(2-methyl-4-(trifluoromethyl)-1H-imidazol-1-yl)-5-(methylsulfonyl)-[1,1′-biphenyl]-4-yl)methanol] | 6.79 | 66%
COc1ncc(-c2oc(C)nc2-c2cc(-c3cccc(S(C)(=O)=O)c3)ccc2-n2cc(C(F)(F)F)nc2C)cn1 [Example 414, 5-(2-methoxypyrimidin-5-yl)-2-methyl-4-(4-(2-methyl-4-(trifluoromethyl)-1H-imidazol-1-yl)-3′-(methylsulfonyl)biphenyl-3-yl)oxazole] | 6.18 | 70%
Cc1nc(-c2cc(-c3cccc(S(=O)(=O)C(F)F)c3)ccc2-n2cc(C(F)(F)F)nc2C)c(-c2ccc(OC(F)F)c(F)c2)o1 [Example 430, 5-(4-(difluoromethoxy)-3-fluorophenyl)-4-(3′-(difluoromethylsulfonyl)-4-(2-methyl-4-(trifluoromethyl)-1H-imidazol-1-yl)biphenyl-3-yl)-2-methyloxazole] | 6.65 | 88%
Cc1nc(-c2cc(-c3cccc(S(=O)(=O)N(C)C)c3)ccc2-n2cc(C(F)(F)F)nc2C)c(-c2ccc(OC(F)F)cc2)o1 [Example 541, 3′-(5-(4-(difluoromethoxy)phenyl)-2-methyloxazol-4-yl)-dimethyl-4′-(2-methyl-4-(trifluoromethyl)-1H-imidazol-1-yl)-[1,1′-biphenyl]-3-sulfonamide] | 7.60 | 90%
